Measured values from article PMC8406298, “Discovery of Fungus-Specific Targets and Inhibitors Using Chemical Phenotyping of Pathogenic Spore Germination” (mBio, 2021).

Key:
[1] = system: normal human dermal fibroblasts (NHDF) cells; assay: Fibroblast cytotoxicity (CellTiter-Glo); format: cell-based; conditions: 10 µM
Description: PrimaPure normal human dermal fibroblasts (NHDF) cells (Genlatis PH10605A) were cultured and passaged in fibroblast growth medium (Genlatis PM116500) according to the manufacturer’s protocol. NHDF cells (1 × 10^3 per well) were plated in a 384-well plate in cell culture medium. The cells were incubated with each compound of interest at 10 μM concentration for 72 h at 37°C and 5% CO2. Following treatment, CellTiter-Glo (Promega) reagent was used to assay ATP-dependent luminescence and thus provide a measure of cell viability. […] For cytotoxicity dose-response curves (Fig. 4C and Fig. 5C), compounds were titrated from 80 μM to 0.5 μM in duplicates.

[2] = system: Cryptococcus yeast (CHY3833 and CHY3836); assay: Yeast replication secondary screen (OD600); format: cell-based, Cryptococcus neoformans serotype D (deneoformans); conditions: 10 μM, 12 h at 30°C
Description: (ii) Yeast replication. CHY3833 and CHY3836 were each grown in YPD liquid overnight at 30°C to saturation and then resuspended in 0.5× YPD at an OD600 of 0.005. Strains were aliquoted into 384-well plates with inhibitors and grown for 12 h at 30°C at […] before OD600 readings were taken. Compounds that caused a >10% decrease in growth were considered yeast growth inhibitors.

Structure (SMILES) | Cytotoxicity: Relative Cell Viability (% of Negative Control) [1] | Yeast Inhibition: % Inhibition [2]
Cc1nc(NC(=O)CCl)sc1C(=O)OCC(C)C [compound 2139195] | 6.3 % of Negative Control | 99.1%
Cc1ccn(-c2ccc(N3CCN(C(=O)c4ccccc4Br)CC3)nn2)n1 [compound 25667819] | 101.9 % of Negative Control | -7.4%
ClC(Cl)(c1nnnn1-c1ccccc1)c1nnnn1-c1ccccc1 [compound 3090522] | 90.6 % of Negative Control | 87.7%
Cc1cc(-c2nnc(NC(=O)C3Oc4ccccc4OC3C)o2)n(C)n1 (stereo not drawn) [compound 44070699] | 97.2 % of Negative Control | -15.7%
S=C(NCc1ccco1)SCc1cn2ccccc2n1 [compound 3377203] | 86.3 % of Negative Control | 66.6%
Cc1ccc(C)c(S(=O)(=O)n2cnc3ccccc32)c1 [compound 700148] | 84.1 % of Negative Control | 59.4%
O=S(=O)(Nc1cccc2ccccc12)c1ccc(Cl)cc1 [compound 310131] | 67.0 % of Negative Control | 59.8%
COc1ccc(CCNC(=O)c2cnn3c(-c4ccc(C)c(C)c4)ccnc23)cc1OC [compound 46074589] | 105.7 % of Negative Control | -4.7%
CCc1ccccc1NC(=O)c1cc(C)oc1C [compound 8839503] | 103.5 % of Negative Control | 37.3%
Cc1cc(C(=O)NCCc2nc3c(c(C(F)(F)F)n2)COCC3)c(C)o1 [compound 91629266] | 103.1 % of Negative Control | 31.5%
Clc1ccc2nc(Nc3ccncc3)nc(-c3ccccc3)c2c1 [compound 4714160] | 90.5 % of Negative Control | 14.9%
CN(C)CCN(C(=O)c1c[nH]c2ccccc12)c1nc2ccc(OC(F)(F)F)cc2s1.Cl [compound 71782913] | 66.6 % of Negative Control | 99.5%
O=C(CCc1ccccc1Br)N1CCC(c2cccs2)CC1 [compound 71807060] | 100.7 % of Negative Control | 5.9%
O=C(c1cc(-c2ccco2)on1)N1CCC(c2cccs2)CC1 [compound 71786870] | 90.1 % of Negative Control | 39.7%
COc1ccc(-c2noc(-c3cc(-c4cc(C)ccc4C)n[nH]3)n2)cc1OC [compound 27375613] | 94.0 % of Negative Control | 9.4%
Cl.Cl.OC(COc1cccc2ccccc12)CN1CCN(c2ccc(F)cc2)CC1 (stereo not drawn) [compound 45283772] | 96.8 % of Negative Control | 44.0%
CCOC(=O)c1c(-c2ccc(C)o2)csc1NC(=O)c1ccc2c(c1)OCCO2 [compound 1186249] | 75.3 % of Negative Control | 44.6%
COc1ccc2nc(N3CCCC(C(=O)O)C3)sc2c1 (stereo not drawn) [compound 53212169] | 105.4 % of Negative Control | -17.8%

Structure (SMILES) | Cytotoxicity: Relative Cell Viability (% of Negative Control) [1] | Yeast Inhibition: % Inhibition [2]
CCSc1oc(-c2ccco2)nc1[P+](c1ccccc1)(c1ccccc1)c1ccccc1 [compound 4360162] | 41.9 % of Negative Control | 72.3%
O=C(CSCc1ccccc1)N1CCC(c2cccs2)CC1 [compound 71786876] | 97.1 % of Negative Control | 12.2%
O=S(=O)(NCc1csc(-c2ccccc2)n1)c1cc(Cl)ccc1Cl [compound 7119035] | 89.2 % of Negative Control | 38.8%
Clc1ccc(OCCSCc2nc3ccccc3[nH]2)cc1 [compound 1589789] | 74.0 % of Negative Control | 79.6%
OC(COc1ccc(C23CC4CC(CC(C4)C2)C3)cc1)C[N+]1(Cc2ccccc2)CCOCC1 (stereo not drawn) [compound 16456368] | 2.8 % of Negative Control | 101.6%
c1ccc(-c2nc([P+](c3ccccc3)(c3ccccc3)c3ccccc3)c(N3CCCCCC3)o2)cc1 [compound 4345313] | 28.8 % of Negative Control | 101.2%
COc1ccc(-c2noc(CSc3nc4ccsc4c(=O)n3C)n2)cc1 [compound 27373469] | 109.3 % of Negative Control | 33.0%
Cc1noc(C)c1C(=O)N1CCN(c2ccc(-c3noc(C(C)C)n3)cn2)CC1 [compound 49701731] | 102.2 % of Negative Control | 1.4%
COC(=O)Nc1nc(CC(=O)N2CCN(c3cccc(Cl)c3Cl)CC2)cs1 [compound 16883840] | 62.6 % of Negative Control | 3.5%
CN(C)S(=O)(=O)N1CCN(CC(O)COc2ccc3cc(Br)ccc3c2)CC1 (stereo not drawn) [compound 2981975] | 88.7 % of Negative Control | 70.4%
O=C(Nc1nc2c(Br)cccc2s1)C1CC1 [compound 7202929] | 66.1 % of Negative Control | 16.5%
COc1cc(-c2c(C#N)c(N)nc3c2c(C)nn3-c2ccc(C)cc2)cc(OC)c1OC [compound 4893324] | 84.7 % of Negative Control | -3.0%
O=C1CC(c2cccs2)CC(=O)N1Cc1csc(-c2ccccc2)n1 [compound 71801965] | 95.9 % of Negative Control | 3.9%
NS(=O)(=O)c1ccc(NC(=O)CSC2CC(=O)N(c3ccc(Br)cc3)C2=O)cc1 (stereo not drawn) [compound 2974037] | 102.2 % of Negative Control | 90.7%
CC(C)=CC(=O)Nc1ccc(OCc2ccccc2)cc1 [compound 731806] | 91.1 % of Negative Control | 64.0%
O=C(Cc1ccc(F)cc1)N1CCN(c2nc(-c3ccsc3)cs2)CC1 [compound 71811049] | 99.2 % of Negative Control | 4.0%
CN1C(=O)c2cccc(NC(=O)c3ccnn3C)c2C1=O [compound 25835862] | 104.6 % of Negative Control | 41.6%
O=C(C1CCC1)N(Cc1cccnc1)c1nc2ccc(Cl)cc2s1 [compound 43967671] | 97.1 % of Negative Control | 78.9%
